Data published in patent publication US7300946B2, “N-(substituted arylmethyl)-4-(disubstituted methyl) piperidines and pyridines” (Bayer CropScience AG, priority 2002, dated 2007).

Test system: tobacco budworm (Heliothis virescens [Fabricius])
Test: surface-treated diet test against the tobacco budworm
Format: in vivo
Conditions: tobacco budworm second instar larvae, surface-treated diet, 0.25 millimoles of candidate insecticide on the surface of the diet, five-day exposure; for Percent Mortality: compared to total number of insects infested; for Percent Growth Inhibition: inhibition of insect weight relative to untreated controls
Protocol: Candidate insecticides were evaluated for activity against the tobacco budworm (Heliothis virescens [Fabricius]) in a surface-treated diet test.
In this test one mL of molten (65–70° C.) wheat germ-based artificial diet was pipetted into each well of a four by six (24 well) multi-well plate (ID# 430345-15.5 mm dia.×17.6 mm deep; Corning Costar Corp., One Alewife Center, Cambridge, Mass. 02140). The diet was allowed to cool to ambient temperature before treatment with candidate insecticide.
For a determination of insecticidal activity, solutions of the candidate insecticides were prepared for testing using a Packard 204DT Multiprobe® Robotic System (Packard Instrument Company, 800 Research Parkway, Meriden, Conn. 06450), in which the robot first diluted a standard 50 millimolar DMSO solution of candidate insecticide with a 1:1 water/acetone solution (V/V) in a ratio of 1:7 stock solution to water/acetone. The robot subsequently pipetted 40 microliters of the so-prepared solution onto the surface of the diet in each of three wells in the 24 multi-well plate. The process was repeated with solutions of seven other candidate insecticides. Once treated, the contents of the multi-well plate were allowed to dry, leaving 0.25 millimoles of candidate insecticide on the surface of the diet, or a concentration of 0.25 millimolar. Appropriate untreated controls containing only DMSO on the diet surface were also included in this test. […]
In each well of the test plate was placed one second instar tobacco budworm larvea, each weighing approximately five milligrams. After the larvae were placed in each well, the plate was sealed with clear polyfilm adhesive tape. The tape over each well was perforated to ensure an adequate air supply. The plates were then held in a growth chamber at 25° C. and 60% relative humidity for five days (light 14 hours/day).
After the five-day exposure period insecticidal activity for each rate of application of candidate insecticide was assessed as percent inhibition of insect weight relative to the weight of insects from untreated controls, and percent mortality when compared to the total number of insects infested.
The test compounds of formula I are identified by numbers that correspond to those in Table 1.
These tests were conducted with 0.25 millimoles of candidate insecticide on the surface of the diet.

SMILES | Percent Mortality | Percent Growth Inhibition
Cn1nnc(-c2ccc(C[N+]3([O-])CCC(=C(c4ccc(C(F)(F)F)cc4)c4ccc(C(F)(F)F)cc4)CC3)cc2)n1 (stereo not shown) [Compound 112] | 100% | 100%
CCn1nnc(-c2ccc(C[N+]3([O-])CCC(=C(c4ccc5c(c4)OC(F)(F)O5)c4ccc5c(c4)OC(F)(F)O5)CC3)cc2)n1 (stereo not shown) [Compound 115] | 100% | 100%
FC(F)(F)c1ccc(C(=C2CC3CCCC(C2)N3Cc2ccc(Oc3ccccn3)cc2)c2ccc(C(F)(F)F)cc2)cc1 [Compound 117, 2-{4-[(9-aza-3-{bis[4-(trifluoromethyl)phenyl]methylene}bicyclo[3.3.1]non-9-yl)methyl]phenoxy}pyridine] | 100% | 100%
O=C(Nc1ccc(F)cc1)Oc1ccc(CN2CCC(C(OC(=O)Nc3ccc(F)cc3)c3ccc(OC(F)(F)F)cc3)CC2)cc1 (stereo not shown) [Compound 181] | 100% | 100%
CCON=Cc1ccc(CN2CCC(C(OC(=O)Nc3ccc(Cl)cc3)c3ccc(C(F)(F)F)cc3)CC2)cc1 (stereo not shown) [Compound 182] | 100% | 100%
CCON=Cc1ccc(CN2CCC(C(OC(=O)Nc3ccc(Br)cc3)c3ccc(C(F)(F)F)cc3)CC2)cc1 (stereo not shown) [Compound 183] | 100% | 100%
CCON=Cc1ccc(CN2CCC(C(OC(=O)Nc3cccc(Cl)c3Cl)c3ccc(C(F)(F)F)cc3)CC2)cc1 (stereo not shown) [Compound 188] | 100% | 100%
CCON=Cc1ccc(CN2CCC(C(OC(=O)Nc3ccc(Cl)c(Cl)c3)c3ccc(C(F)(F)F)cc3)CC2)cc1 (stereo not shown) [Compound 189] | 100% | 100%
CCON=Cc1ccc(CN2CCC(C(OC(=O)Nc3ccc(Cl)cc3Cl)c3ccc(C(F)(F)F)cc3)CC2)cc1 (stereo not shown) [Compound 190] | 100% | 100%
CCON=Cc1ccc(CN2CCC(C(OC(=O)Nc3cc(Cl)ccc3Cl)c3ccc(C(F)(F)F)cc3)CC2)cc1 (stereo not shown) [Compound 191] | 100% | 100%
CCON=Cc1ccc(CN2CCC(C(OC(=O)Nc3cc(Cl)c(Cl)cc3Cl)c3ccc(C(F)(F)F)cc3)CC2)cc1 (stereo not shown) [Compound 192] | 67% | 98%
CCON=Cc1ccc(CN2CCC(C(OC(=O)Nc3ccc(F)cc3F)c3ccc(C(F)(F)F)cc3)CC2)cc1 (stereo not shown) [Compound 193] | 100% | 100%
CON=Cc1ccc(CN2CCC(C(OC(=O)Nc3ccc(F)c(F)c3)c3ccc(OC(F)(F)F)cc3)CC2)cc1 (stereo not shown) [Compound 194] | 100% | 100%
CCON=Cc1ccc(CN2CCC(C(OC(=O)Nc3ccc(F)c(F)c3)c3ccc(OC(F)(F)F)cc3)CC2)cc1 (stereo not shown) [Compound 195] | 100% | 100%
CCON=Cc1ccc(CN2CCC(C(OC(=O)Nc3ccc(F)c(F)c3)c3ccc(C(F)(F)F)cc3)CC2)cc1 (stereo not shown) [Compound 196] | 100% | 100%
CCON=Cc1ccc(CN2CCC(C(OC(=O)Nc3c(F)cccc3F)c3ccc(C(F)(F)F)cc3)CC2)cc1 (stereo not shown) [Compound 199] | 100% | 100%
CCON=Cc1ccc(CN2CCC(C(OC(=O)Nc3cc(F)cc(F)c3)c3ccc(C(F)(F)F)cc3)CC2)cc1 (stereo not shown) [Compound 200] | 100% | 100%
CCON=Cc1ccc(CN2CCC(C(OC(=O)Nc3ccc(F)c(F)c3F)c3ccc(C(F)(F)F)cc3)CC2)cc1 (stereo not shown) [Compound 201] | 100% | 100%
CCON=Cc1ccc(CN2CCC(C(OC(=O)Nc3c(F)c(F)c(F)c(F)c3F)c3ccc(C(F)(F)F)cc3)CC2)cc1 (stereo not shown) [Compound 202] | 100% | 100%
CCON=Cc1ccc(CN2CCC(C(OC(=O)Nc3ccccc3C(F)(F)F)c3ccc(C(F)(F)F)cc3)CC2)cc1 (stereo not shown) [Compound 203] | 100% | 100%
CCON=Cc1ccc(CN2CCC(C(OC(=O)Nc3cccc(C(F)(F)F)c3)c3ccc(C(F)(F)F)cc3)CC2)cc1 (stereo not shown) [Compound 204] | 100% | 100%

SMILES | Percent Mortality | Percent Growth Inhibition
CCON=Cc1ccc(CN2CCC(C(OC(=O)Nc3ccc(C(F)(F)F)cc3)c3ccc(C(F)(F)F)cc3)CC2)cc1 (stereo not shown) [Compound 205] | 33% | 100%
CCON=Cc1ccc(CN2CCC(C(OC(=O)Nc3ccc(Cl)cc3C(F)(F)F)c3ccc(C(F)(F)F)cc3)CC2)cc1 (stereo not shown) [Compound 206] | 100% | 100%
CCON=Cc1ccc(CN2CCC(C(OC(=O)Nc3ccc(Cl)c(C(F)(F)F)c3)c3ccc(C(F)(F)F)cc3)CC2)cc1 (stereo not shown) [Compound 207] | 100% | 100%
CCON=Cc1ccc(CN2CCC(C(OC(=O)Nc3ccc(Br)cc3C(F)(F)F)c3ccc(C(F)(F)F)cc3)CC2)cc1 (stereo not shown) [Compound 208] | 100% | 100%
CCON=Cc1ccc(CN2CCC(C(OC(=O)Nc3ccc(OC)cc3)c3ccc(C(F)(F)F)cc3)CC2)cc1 (stereo not shown) [Compound 209] | 100% | 100%
CCON=Cc1ccc(CN2CCC(C(OC(=O)Nc3cc(Cl)c(OC)cc3OC)c3ccc(C(F)(F)F)cc3)CC2)cc1 (stereo not shown) [Compound 210] | 0% | 67%
CCON=Cc1ccc(CN2CCC(C(OC(=O)Nc3ccc(OC(F)(F)F)cc3)c3ccc(C(F)(F)F)cc3)CC2)cc1 (stereo not shown) [Compound 211] | 100% | 100%
CCON=Cc1ccc(CN2CCC(C(OC(=O)Nc3ccc(-c4ccccc4)cc3)c3ccc(C(F)(F)F)cc3)CC2)cc1 (stereo not shown) [Compound 212] | 100% | 100%
CCON=Cc1ccc(CN2CCC(C(OC(=O)Nc3cccc4c3CC=CC4)c3ccc(C(F)(F)F)cc3)CC2)cc1 (stereo not shown) [Compound 214] | 0% | 100%
O=C(Nc1ccc(Cl)cc1)OC(c1ccc(C(F)(F)F)cc1)C1CCN(Cc2ccc(Oc3ccccn3)cc2)CC1 (stereo not shown) [Compound 227, N-(4-chlorophenyl)({1-[(4-(2-pyridyloxy)phenyl)methyl](4-piperidyl)}[4-(trifluoromethyl)phenyl]methoxy)carboxamide] | 100% | 100%
O=C(Nc1cccc(Cl)c1Cl)OC(c1ccc(C(F)(F)F)cc1)C1CCN(Cc2ccc(Oc3ccccn3)cc2)CC1 (stereo not shown) [Compound 228] | 100% | 100%
O=C(Nc1ccc(Cl)c(Cl)c1)OC(c1ccc(C(F)(F)F)cc1)C1CCN(Cc2ccc(Oc3ccccn3)cc2)CC1 (stereo not shown) [Compound 230] | 100% | 100%
O=C(Nc1cc(Cl)ccc1Cl)OC(c1ccc(C(F)(F)F)cc1)C1CCN(Cc2ccc(Oc3ccccn3)cc2)CC1 (stereo not shown) [Compound 231] | 100% | 100%
O=C(Nc1cc(Cl)cc(Cl)c1)OC(c1ccc(C(F)(F)F)cc1)C1CCN(Cc2ccc(Oc3ccccn3)cc2)CC1 (stereo not shown) [Compound 232] | 100% | 100%
O=C(Nc1c(Cl)cccc1Cl)OC(c1ccc(C(F)(F)F)cc1)C1CCN(Cc2ccc(Oc3ccccn3)cc2)CC1 (stereo not shown) [Compound 233] | 33% | 100%
O=C(Nc1cc(Cl)c(Cl)cc1Cl)OC(c1ccc(C(F)(F)F)cc1)C1CCN(Cc2ccc(Oc3ccccn3)cc2)CC1 (stereo not shown) [Compound 234] | 100% | 100%
O=C(Nc1cccc(F)c1)OC(c1ccc(OC(F)(F)F)cc1)C1CCN(Cc2ccc(Oc3ccccn3)cc2)CC1 (stereo not shown) [Compound 235] | 100% | 100%
O=C(Nc1ccc(F)cc1)OC(c1ccc(OC(F)(F)F)cc1)C1CCN(Cc2ccc(Oc3ccccn3)cc2)CC1 (stereo not shown) [Compound 236] | 100% | 100%
O=C(Nc1ccc(F)c(F)c1)OC(c1ccc(C(F)(F)F)cc1)C1CCN(Cc2ccc(Oc3ccccn3)cc2)CC1 (stereo not shown) [Compound 237] | 100% | 100%
O=C(Nc1ccc(F)c(F)c1)OC(c1ccc(OC(F)(F)F)cc1)C1CCN(Cc2ccc(Oc3ccccn3)cc2)CC1 (stereo not shown) [Compound 238] | 100% | 100%
